{"source": "paper PMC4569013", "about": "“Massive Bioaccumulation and Self‐Assembly of Phenazine Compounds in Live Cells” (Advanced Science, 2015)", "key": {"RAW264.7 macrophages": {"tested_on": "RAW264.7 macrophages", "assay": "Cell accumulation experiment, transmitted light microscopy of cellular staining pattern", "format": "cell-based", "settings": "for Inferred uptake: inferred from staining pattern after 72 hour incubation; for Observed cellular staining pattern (Notes): live cells, 72 hour incubation, 5 × 10^−6 M (2.5 × 10^−6 M for I); for Cellular staining relative to clofazimine: live macrophages, 72 h; for Staining in fixed cells: methanol-fixed cells incubated 72 h with compound (control)", "procedure": "Cell Accumulation Experiments and Transmitted Light Microscopic Examination: […] After a 24 h incubation (37 °C, 5% CO2), cells were incubated with solution of clofazmine or its chemical derivatives (300 μL of 5 × 10^−6 m concentration; measured cell viability ranging from 85% to 97% for all compounds tested at this concentration; Figure 1) in DMEM (no phenol red; plus 1 × 10^−3 M sodium pyruvate and 5% FBS). For Compound “I,” 2.5 × 10^−6 M of compound solution in media was used for the RAW 264.7 macrophages incubation because of lower cell viability at higher concentrations (IC50 = (3.95 ± 0.11) × 10^−6 M). A solution of clofazmine or other chemical derivatives was made by a diluting stock solutions (2.5 × 10^−3 M in DMSO; 10 × 10^−3 M stock in DMSO were stored at −80 °C for further use) into DMEM with 5% FBS. […] The extracellular concentration of each compound in each well was maintained by daily replacement of the compound‐containing media. After 72 h of incubation with clofazmine or its derivatives, compound‐containing media were removed and cells were washed twice with media. Live cells in the chambered glasses were examined under inverted transmitted light microscopy (Nikon Eclipse Ti microscope) with a 40× objective and color camera. As a control experiment, fixed cells were also microscopically examined after incubation with the compounds. Cells were seeded on the chambered cover glasses at the density of 1.5 × 10^4 cells cm^−2 (RAW264.7 macrophages) or 2.5 × 10^4 cells cm^−2 (MDCK epithelial cells). After an overnight incubation (37 °C, 5% CO2), media was removed from the wells and cold methanol (−20 °C) was added to each well. After 30 s, remaining methanol was removed by washing with media with 5% FBS. Fixed cells were incubated (37 °C, 5% CO2) with clofazmine or derivatives (300 μL of 5 × 10^−6 M; 2.5 × 10^−6 M for I) in media with 5% FBS. After 72 h, fixed RAW264.7 or MDCK cells were washed with media and examined using the same transmitted microscopy conditions as the live cells."}, "MDCK epithelial cells": {"tested_on": "MDCK epithelial cells", "assay": "Linear diattenuation anisotropy microscopy (LC-PolScope) of intracellular inclusions", "format": "cell-based, Canine", "settings": "72 h, compared with clofazimine", "procedure": "The optical design was built on a Nikon Eclipse Ti microscope equipped with the liquid crystal universal compensator consisting of a linear polarizer and a pair of liquid crystal devices. The LC compensator was part of the transillumination path and was used to illuminate the specimen with monochromatic, linearly polarized light of varying polarization orientation. There was no polarization analyzer present in the imaging path. Quantitative intensity images were recorded by a charge‐coupled device camera and a desktop computer calculated the average transmittance, the differential transmittance and the polarization orientation leading to maximum transmittance for each optically resolved picture element (pixel). Acquisition and processing steps were controlled using OpenPolScope plugins for the open source imaging programs ImageJ and Micro‐Manager (MMStudio version 1.4.15). With the combination of hardware and software, polarized light images were acquired at high sensitivity and high spatial resolution for measuring linear diattenuation.\nLinear Diattenuation Microscopy Data Acquisition and Analysis: After RAW264.7 macrophages or MDCK epithelial cells were incubated with the compound in the chambered cover glasses for 72 h, at the same time of performing transmitted microscopic examination, cell specimens were examined under linear diattenuation microscopy using the Nikon Eclipse Ti microscope with 40×/0.75 NA objective and monochromatic light of two different center wavelengths, 546 and 623 nm (passband 30 nm). In the OpenPolScope software, Pol‐Acquisition and Pol‐Analyzer plugins (version 2.0) were used to capture, process, and analyze the attenuation images. Before imaging the samples, the setup was calibrated using a specially prepared slide featuring four small pieces of linear polarization filters. The transmission axes of the filters were oriented in steps of 45° providing a means to calibrate the LC universal compensator settings. After the calibration, a sample slide was inserted and first a sequence of polarized light images of a clear, fully transmitting sample area was recorded, followed by an image sequence featuring the cells under investigation. The images of the clear area were used to determine instrument factors which were needed for computing the average and the polarization dependent loss in transmittance in cellular components visible in the second image.10\nLinear diattenuation is a material property that can occur in materials such as crystals, in which the light absorbing molecules are arranged with a preferred orientation. The molecular alignment creates principal axes in the material denoting polarization directions for which light is maximally and minimally transmitted. Diattenuation is the difference between maximal (T max) and minimal (T min) transmittance, divided by their sum (Equation (1)): (1) Diattenuation=Tmax‐Tmin/Tmax+Tmin\nTo simultaneously measure the attenuation of many crystals with arbitrary orientations, we developed algorithms based on four specimen images, each recorded using light of a different polarization orientation: 0°, 45°, 90°, and 135°.10 The four raw images were used to calculate the average and differential transmittance and the orientation of maximum transmittance in every resolved image pixel. To isolate and analyze quantitative data of the objects (crystals), the anisotropy or maximum transmittance axis orientation image file opened in ImageJ was inverted (Ctrl + Shift + I) and thresholded using ImageJ's default automatic method (“Binary” → “Convert to Mask”). By using the ImageJ's algorithm, “Analyze Particles,” data of anisotropy or maximum transmittance axis orientation of objects in images could be obtained automatically. Diattenuation ratios were calculated by dividing anisotropy at 623 nm by that at 546 nm."}}, "data": [{"smiles": "Clc1ccc(Nc2cc3nc4ccccc4n(-c4ccc(Cl)cc4)c-3cc2=NCCc2ccccc2)cc1", "note": "[Compound P]", "values": [{"measurement": "Inferred uptake", "setting": "RAW264.7 macrophages", "result": "Excellent"}, {"measurement": "Observed cellular staining pattern (Notes)", "setting": "RAW264.7 macrophages", "result": "Large fibrous/crystal-like brown inclusions present in live cells"}, {"measurement": "Cellular staining relative to clofazimine", "setting": "RAW264.7 macrophages", "result": "more prominent staining patterns"}, {"measurement": "Staining in fixed cells", "setting": "RAW264.7 macrophages", "result": "absent in fixed cells"}, {"measurement": "Diattenuation anisotropy of intracellular inclusions", "setting": "MDCK epithelial cells", "result": "higher diattenuation anisotropy"}]}, {"smiles": "C[C@@H](CN=c1cc2n(-c3ccc(Cl)cc3)c3ccccc3nc-2cc1Nc1ccc(Cl)cc1)c1ccccc1", "note": "[Compound U]", "values": [{"measurement": "Inferred uptake", "setting": "RAW264.7 macrophages", "result": "Good"}, {"measurement": "Observed cellular staining pattern (Notes)", "setting": "RAW264.7 macrophages", "result": "Fibrous/crystal-like brown inclusions with orange perinuclear vesicles are present in live cells"}, {"measurement": "Cellular staining relative to clofazimine", "setting": "RAW264.7 macrophages", "result": "prominent cellular staining"}, {"measurement": "Staining in fixed cells", "setting": "RAW264.7 macrophages", "result": "absent in fixed cells"}, {"measurement": "Diattenuation anisotropy of intracellular inclusions", "setting": "MDCK epithelial cells", "result": "only in macrophages"}]}]}
